This is an account of results in patent US20240390338A1, “METHODS FOR TREATING NEUROGENERATIVE DISEASES” (PTC THERAPEUTICS, INC., priority 2021, published 2024).

The test system of this experiment is MAPT 3R mRNA. The experiment can be described thus: RT-qPCR Assay to Quantify MAPT 3R mRNA in Cells. In kind it is cell-based. To be noted: cells incubated with compound 24 h; 7-point concentration curve; MAPT minigene 3R RT-qPCR with GAPDH assay; EC2X interpolated from dose response curve. As to the method: RT-qPCR Assay to Quantify MAPT 3R mRNA in Cells
Test compounds were serially diluted 3.16-fold in 100% DMSO to generate a 7-point concentration curve. Aliquots of 0.5 μL of diluted compounds were transferred to a 96-well flat bottom plate by a liquid handler. An aliquot of 0.5 μL DMSO was also transferred to separate wells and used as controls. Duplicate samples were set up for each compound concentration and for the DMSO control.
Cells were thawed and incubated in cell culture media (DMEM, 10% FBS, and 1% antibiotic cocktail) for 72 h. Cells were trypsinized, counted, and re-suspended to a concentration of 200,000 cells/mL in cell culture media. A 100 μL aliquot of the cell suspensions were plated at 20,000 cells per well in the compound containing 96 well microtiter plate and incubated for in a cell culture incubator (37° C., 5% CO2, 100% relative humidity).
After 24 h, media was aspirated from the cells and 20 μL of the RCL2 lysis buffer (10 mM Tris-HCL pH 7.4, 150 mM NaCl, 0.33% IGEPAL® CA-630) was added to each well and incubated at RT for 1 min. Chilled nuclease free water (140 μL per well) was added and the plates were immediately transferred on ice. After 1 min on ice, plates were frozen at −80° C. overnight.
Preparation of RT-qPCR Reaction Mixture:
An aliquot of 4 μL/well of the cell lysates was transferred using the liquid handler to the Armadillo 384-Well PCR plate containing 6 μL/well of the RT-qPCR reaction mixture that was prepared as detailed above. The plates were then sealed with MicroAmp™ Optical Adhesive Film followed by spinning down for 1 min and placed in the CFX384 thermocycler (BioRad).
The RT-qPCR was carried out at the following temperatures for the indicated time: • Step 1: 48° C. (30 min) • Step 2: 95° C. (10 min) • Step 3: 95° C. (15 sec) • Step 4: 60° C. (1 min); then, repeated Steps 3 and 4 for a total of 40 cycles.
The percent exon 4 skipping was calculated for each dose of compound treatment using Equations 1 and 2.
Data were fit to a dose response curve and the EC2X was interpolated using XLfit® statistical and curve fitting package.
An EC2X value between >1000 nM and ≤1500 nM is indicated by two stars (**). An EC2X value between >500 nM and ≤1000 nM is indicated by three stars (***). An EC2X value between >50 nM and ≤500 nM is indicated by four stars (****). An EC2X value ≤50 nM is indicated by five stars (*****).
(Quantitative PCR measures a nucleic acid by following its amplification.)
Take `C[C@H](N)Cc1cc2nc(Cl)cc(NCc3ccco3)c2s1` [Cpd 16, 2-[(2S)-2-aminopropyl]-5-chloro-N-[(furan-2-yl)methyl]thieno[3,2-b]pyridin-7-amine]: the EC (2-fold increase) was 0.05 to 0.5 µM. Regarding `N[C@@H](CO)Cc1cc2nc(Cl)cc(NCc3ccco3)c2s1` [Cpd 17, (2R)-2-amino-3-(5-chloro-7-{[(furan-2-yl)methyl]amino}thieno[3,2-b]pyridin-2-yl)propan-1-ol], the EC (2-fold increase) fell in the range of 1 to 1.5 µM.

As for `Cc1c(C[C@H](C)N)sc2c(NCc3ccco3)cc(Cl)nc12` [Cpd 18, 2-[(2S)-2-aminopropyl]-5-chloro-N-[(furan-2-yl)methyl]-3-methylthieno[3,2-b]pyridin-7-amine], the EC (2-fold increase) is at most 0.05 µM.

`Cc1c(C[C@H](C)N)sc2c(NCc3ccccc3F)cc(Cl)nc12` [Cpd 29, 2-[(2S)-2-aminopropyl]-5-chloro-N-[(2-fluorophenyl)methyl]-3-methylthieno[3,2-b]pyridin-7-amine]: the EC (2-fold increase) was at most 0.05 µM. The value for `Cc1c(C[C@H](C)N)sc2c(NCc3ccco3)ccnc12` [Cpd 34, 2-[(2S)-2-aminopropyl]-N-[(furan-2-yl)methyl]-3-methylthieno[3,2-b]pyridin-7-amine] was 0.05 to 0.5 µM; that for `C[C@H](N)Cc1sc2c(NCc3ccco3)cc(Cl)nc2c1Cl` [Cpd 36, 2-[(2S)-2-aminopropyl]-3,5-dichloro-N-[(furan-2-yl)methyl]thieno[3,2-b]pyridin-7-amine] was at most 0.05 µM. In the case of `N[C@@H](CO)Cc1sc2c(NCc3ccco3)cc(Cl)nc2c1Cl` [Cpd 39, (2R)-2-amino-3-(3,5-dichloro-7-{[(furan-2-yl)methyl]amino}thieno[3,2-b]pyridin-2-yl)propan-1-ol], the EC (2-fold increase) fell in the range of 0.05 to 0.5 µM.

On to `COC[C@H](N)Cc1sc2c(NCc3ccco3)cc(Cl)nc2c1Cl` [Cpd 40, 2-[(2R)-2-amino-3-methoxypropyl]-3,5-dichloro-N-[(furan-2-yl)methyl]thieno[3,2-b]pyridin-7-amine], for which the EC (2-fold increase) is at most 0.05 µM. The value for `N[C@@H](CO)Cc1sc2c(NCc3ccco3)cc(Cl)nc2c1Br` [Cpd 41, (2R)-2-amino-3-(3-bromo-5-chloro-7-{[(furan-2-yl)methyl]amino}thieno[3,2-b]pyridin-2-yl)propan-1-ol] was 0.5 to 1 µM; that for `CN[C@@H](C)Cc1sc2c(NCc3ccco3)cc(Cl)nc2c1C` [Cpd 42, 5-chloro-N-[(furan-2-yl)methyl]-3-methyl-2-[(2S)-2-(methylamino)propyl]thieno[3,2-b]pyridin-7-amine] was 0.5 to 1 µM.

Consider `COC[C@H](N)Cc1sc2c(NCc3ccco3)cc(Cl)nc2c1Br` [Cpd 44, 2-[(2R)-2-amino-3-methoxypropyl]-3-bromo-5-chloro-N-[(furan-2-yl)methyl]thieno[3,2-b]pyridin-7-amine], for which the EC (2-fold increase) is at most 0.05 µM. Take `COC[C@H](N)Cc1sc2c(NCc3ccco3)cc(Cl)nc2c1C` [Cpd 45, 2-[(2R)-2-amino-3-methoxypropyl]-5-chloro-N-[(furan-2-yl)methyl]-3-methylthieno[3,2-b]pyridin-7-amine]: the EC (2-fold increase) is at most 0.05 µM.

On to `C[C@H](N)Cc1sc2c(NCc3ccco3)cc(Cl)nc2c1C1CC1` [Cpd 51, 2-[(2S)-2-aminopropyl]-5-chloro-3-cyclopropyl-N-[(furan-2-yl)methyl]thieno[3,2-b]pyridin-7-amine], for which the EC (2-fold increase) was at most 0.05 µM. For `C[C@H](N)Cc1sc2c(NCc3cccs3)cc(Cl)nc2c1Cl` [Cpd 52, 2-[(2S)-2-aminopropyl]-3,5-dichloro-N-[(thiophen-2-yl)methyl]thieno[3,2-b]pyridin-7-amine] the value was at most 0.05 µM; for `C[C@H](N)Cc1sc2c(NCc3cccs3)cc(Cl)nc2c1Br` [Cpd 53, 2-[(2S)-2-aminopropyl]-3-bromo-5-chloro-N-[(thiophen-2-yl)methyl]thieno[3,2-b]pyridin-7-amine], at most 0.05 µM; for `Cc1c(C[C@H](C)N)sc2c(NCc3cccs3)cc(C#N)nc12` [Cpd 54, 2-[(2S)-2-aminopropyl]-3-methyl-7-{[(thiophen-2-yl)methyl]amino}thieno[3,2-b]pyridine-5-carbonitrile], 0.05 to 0.5 µM. On to `Cc1c(C[C@H](C)N)sc2c(NCc3nccs3)cc(Cl)nc12` [Cpd 57, 2-[(2S)-2-aminopropyl]-5-chloro-3-methyl-N-[(1,3-thiazol-2-yl)methyl]thieno[3,2-b]pyridin-7-amine], for which the EC (2-fold increase) is at most 0.05 µM. In the case of `Cc1c(C[C@@H](N)CO)sc2c(NCc3ccco3)cc(Cl)nc12` [Cpd 58, (2R)-2-amino-3-(5-chloro-7-{[(furan-2-yl)methyl]amino}-3-methylthieno[3,2-b]pyridin-2-yl)propan-1-ol], the EC (2-fold increase) was at most 0.05 µM. With `Cc1c(C[C@@H](N)CC(C)C)sc2c(NCc3cccs3)cc(Cl)nc12` [Cpd 61, 2-[(2S)-2-amino-4-methylpentyl]-5-chloro-3-methyl-N-[(thiophen-2-yl)methyl]thieno[3,2-b]pyridin-7-amine], the EC (2-fold increase) is at most 0.05 µM. With `N[C@H](CF)Cc1sc2c(NCc3cccs3)cc(Cl)nc2c1Br` [Cpd 63, 2-[(2S)-2-amino-3-fluoropropyl]-3-bromo-5-chloro-N-[(thiophen-2-yl)methyl]thieno[3,2-b]pyridin-7-amine], the EC (2-fold increase) is 1 to 1.5 µM. On to `CC[C@H](N)Cc1sc2c(NCc3cccs3)cc(Cl)nc2c1Br` [Cpd 73, 2-[(2S)-2-aminobutyl]-3-bromo-5-chloro-N-[(thiophen-2-yl)methyl]thieno[3,2-b]pyridin-7-amine], for which the EC (2-fold increase) was at most 0.05 µM. `N[C@@H](CCF)Cc1sc2c(NCc3cccs3)cc(Cl)nc2c1Br` [Cpd 74, 2-[(2S)-2-amino-4-fluorobutyl]-3-bromo-5-chloro-N-[(thiophen-2-yl)methyl]thieno[3,2-b]pyridin-7-amine]: the EC (2-fold increase) is at most 0.05 µM. In the case of `N[C@@H](CF)Cc1sc2c(NCc3cccs3)cc(Cl)nc2c1Br` [Cpd 76, 2-[(2R)-2-amino-3-fluoropropyl]-3-bromo-5-chloro-N-[(thiophen-2-yl)methyl]thieno[3,2-b]pyridin-7-amine], the EC (2-fold increase) was at most 0.05 µM. On to `CC[C@H](N)Cc1sc2c(NCc3cccs3)cc(Cl)nc2c1Cl` [Cpd 83, 2-[(2S)-2-aminobutyl]-3,5-dichloro-N-[(thiophen-2-yl)methyl]thieno[3,2-b]pyridin-7-amine], for which the EC (2-fold increase) was at most 0.05 µM. Take `Cc1c(C[C@@H](N)CF)sc2c(NCc3cccs3)cc(Cl)nc12` [Cpd 91, 2-[(2R)-2-amino-3-fluoropropyl]-5-chloro-3-methyl-N-[(thiophen-2-yl)methyl]thieno[3,2-b]pyridin-7-amine]: the EC (2-fold increase) was at most 0.05 µM.

Take `Cc1c(C[C@@H](N)CCF)sc2c(NCc3cccs3)cc(Cl)nc12` [Cpd 92, 2-[(2S)-2-amino-4-fluorobutyl]-5-chloro-3-methyl-N-[(thiophen-2-yl)methyl]thieno[3,2-b]pyridin-7-amine]: the EC (2-fold increase) fell in the range of 0.05 to 0.5 µM.

On to `N[C@@H](CCF)Cc1sc2c(NCc3ccco3)cc(Cl)nc2c1Cl` [Cpd 93, 2-[(2S)-2-amino-4-fluorobutyl]-3,5-dichloro-N-[(furan-2-yl)methyl]thieno[3,2-b]pyridin-7-amine], for which the EC (2-fold increase) lay within 0.05 to 0.5 µM. For the molecule `N[C@@H](CF)Cc1sc2c(NCc3ccco3)cc(Cl)nc2c1Cl` [Cpd 94, 2-[(2R)-2-amino-3-fluoropropyl]-3,5-dichloro-N-[(furan-2-yl)methyl]thieno[3,2-b]pyridin-7-amine], the EC (2-fold increase) was at most 0.05 µM.

In the case of `Cc1c(C[C@@H](N)CCF)sc2c(NCc3ccco3)cc(Cl)nc12` [Cpd 95, 2-[(2S)-2-amino-4-fluorobutyl]-5-chloro-N-[(furan-2-yl)methyl]-3-methylthieno[3,2-b]pyridin-7-amine], the EC (2-fold increase) was at most 0.05 µM. For `N[C@@H](CCF)Cc1sc2c(NCc3ccco3)cc(Cl)nc2c1Br` [Cpd 97, 2-[(2S)-2-amino-4-fluorobutyl]-3-bromo-5-chloro-N-[(furan-2-yl)methyl]thieno[3,2-b]pyridin-7-amine] the value was at most 0.05 µM.
